Measured values as given in paper PMC10222512, “Thiocarbonyl Derivatives of Natural Chlorins: Synthesis Using Lawesson’s Reagent and a Study of Their Properties” (Molecules, 2023).

Legend:
[1] = UV-Vis absorption and fluorescence spectra; type: physicochemical; conditions: dichloromethane; for fluorescence maximum: excitation at 550 nm
Method: Because the pigments noted above are photoactive compounds, it was important to determine the effect of the sulfur atom on their spectral characteristics.
Absorption and fluorescence spectra were recorded on Shimadzu UV1800 UV/VIS (Shimadzu, Duisburg, Germany) and Shimadzu RF-5301 (Shimadzu, Duisburg, Germany) spectrophotometers in quartz cells (0.4 × 1.0 cm) with an optical path length of 1 cm (spectral slit width 1 nm), using dichloromethane, acetone, and water as the solvents. Absorption spectra were recorded in the range of 350–750 nm. Fluorescence spectra were recorded in the range of 600–800 nm (excitation wavelength 550 nm), using dichloromethane, acetone, and water as the solvents. The fluorescence quantum yield was determined by the relative method. A solution of purpurin-18 in toluene was used as the standard. Both ^1H and ^13C NMR spectra were recorded on a Bruker DPX 300 spectrometer (Bruker, Alzenau, Germany). NMR samples were prepared in d6-acetone and CDCl3. Matrix-assisted laser desorption/ionization (MALDI) mass spectra were recorded on a Bruker Ultraflex TOF/TOF spectrometer (Bruker, Alzenau, Germany), with 2,5-dihydroxybenzoic acid as the matrix. Elemental analysis was performed on a Vario Micro Cube analyzer (Elementar, Berlin, Germany).

[2] = Chemical stability in 4% aqueous micellar solution of Kolliphor ELP (absorption band intensity vs time); type: physicochemical
Excerpt: The stability of pyropheophorbide a 13^1-thioketone (6) in 4% aqueous micellar solution of Kolliphor ELP over time was studied at a neutral pH by monitoring the variation in the Q2 band intensity in the absorption spectra of the sample.
At the next step, we studied the chemical stability of complex 7 obtained in Kolliphor ELP aqueous micellar solutions vs. time at various pH values based on the variation in the intensity of the Qy band in the EAS of the samples (Figure 4).
A solution of compounds (4) or (7) in dichloromethane (1–2 mL) was added dropwise with continuous argon bubbling to a freshly prepared 4% aqueous solution of Kolliphor ® ELP (5 mL) heated to 45 °C. Bubbling was continued until strong foaming started. A clear dark-red solution with a concentration of 0.25 mg/mL was obtained, which was then successively filtered through a 0.45 µm PTFE filter and a 0.22 µm PTFE filter. The concentrations of the resulting micellar solutions were monitored spectrophotometrically.

[3] = test system: S37 murine sarcoma cell line; test: Photoinduced (combined) cytotoxicity, MTT assay after irradiation; type: cell-based; conditions: S37 cells; for IC50: 4 h PS incubation
Method: To estimate the combined effect (photoinduced and chemocytotoxic) of compound (4) and platinum complex (7), a two-step experiment was designed: incubation of cells with PS for 4 h and irradiation and subsequent incubation for 48 or 72 h followed by estimation of cell survival by the MTT assay.
The S37 murine sarcoma cell line (collection of the N.N. Blokhin Research Institute of Oncology) was used to estimate photoinduced activity and cytotoxicity.
Cells were cultured in DMEM medium (PanEco, Russia) with addition of 2 mM L-glutamine (PanEco, Moscow, Russia) and 10% fetal calf blood serum (FCS) (Corning, New York, NY, USA) in 25 cm^2 culture vials (Corning, USA) at 37 °C in a humid atmosphere containing 5% carbon dioxide. Upon passivation, the Versene solution (PanEco, Russia) was used to remove the cells from the substrate. For in vitro studies, cells of the 3rd and 4th passages were used with an optimal seeding concentration of 6 × 10^4 cells/mL.
The concentrations of the solutions obtained were 0.6 mg/mL for compound (4) and 0.1 mg/mL for compound (7). All the volumes obtained were filtered through a Millipore membrane filter with a pore size of 0.22 μm. Next, the samples were diluted in 24-well plates (Corning, USA) on the cell-culturing medium. The final concentration of the substances ranged from 32 ng/mL to 20 μg/mL.
To perform the experiments, S37 tumor cells were seeded into 96-well plates in the amount of 6 × 10^3 cells per well in a 100 μL volume. Exposure was performed in the exponential phase of cell growth 24 h after seeding. Solutions of compounds in the complete culture medium were added to the wells at final concentrations of 32 ng/mL to 20 μg/mL, in triplicate. The time of cell incubation with compounds before irradiation was 4 h. The culture medium was used as the blank. Light exposure was performed with a halogen lamp through a KS-10 broadband filter (λ > 620 nm). The light dose was 10 J/cm^2. After light exposure, the plates with cells were placed in a CO2 incubator for 24, 48, or 72 h.
Cell survival was estimated using the colorimetric MTT test (24 and 72 h after exposure), which is based on the ability of dehydrogenases in living cells to convert yellow water-soluble 3-(4-5-dimethyl-[…]-2)-2,5-diphenyltetrazolium bromide to blue crystals of formazan, whose amount is measured spectrophotometrically.
Before the test, cells were washed from cytotoxic agents. Then, 0.5% solution of 3-(4,5-dimethylthiazolyl-2)-2,5-diphenyltetrazolium bromide was added to the wells and the system was incubated for 3 h under standard conditions. After incubation, the medium with the MTT-reagent was removed and formazan crystals were dissolved for 10 min with dimethyl sulfoxide. Optical density was measured on a Multiscan FC multichannel plate photometer (Thermo scientific) at 550 nm.
The growth inhibition (GI) of cells in a culture was calculated using the following formula:GI(%) = [ODk − ODo/ODk)] × 100%, where ODo is the optical density of formazan in the test wells and ODk is the optical density of formazan in the control wells.
Quantitative parameters were calculated using the results of three independent tests.

[4] = test system: S37 murine sarcoma cell line; test: Dark cytotoxicity, MTT assay; type: cell-based; conditions: S37 cells; 72 h incubation of compounds with cells, no irradiation, MTT
Method: To estimate cytotoxicity, cells were incubated with the substances for 72 h under dark conditions in a CO2 incubator.
Cell survival was estimated using the colorimetric MTT test (24 and 72 h after exposure), which is based on the ability of dehydrogenases in living cells to convert yellow water-soluble 3-(4-5-dimethyl-tetrazolyl-2)-2,5-diphenyltetrazolium bromide to blue crystals of formazan, whose amount is measured spectrophotometrically.

[5] = Chemical stability in cell culture medium at different pH (Qy band intensity); type: physicochemical
Method: (§1) The chemical stability of compounds 4 and 7 was also studied in the lysate of S37 sarcoma cells (pH = 7.8), as well as in the cell culture medium at different pH values. The stability was assessed by the change in the intensity of the Qy bands as described above.

[6] = Chemical stability in lysate of S37 sarcoma cells (Qy band intensity); type: physicochemical; conditions: Cell lysate S37 (pH = 7.8)
Method: as §1

## C=Cc1c(C)c2cc3nc(c4c5[nH]c(cc6nc(cc1[nH]2)C(C)=C6CC)c(C)c5C(=S)C4C(=O)OC)[C@@H](CCC(=O)OC)[C@@H]3C (stereo partly drawn) [Compound 5]
[1]
  long-wave absorption maximum (Q2 band): 706 nm
  fluorescence maximum: 719 nm

## C=Cc1c(C)c2cc3nc(c4c5[nH]c(cc6nc(cc1[nH]2)C(C)=C6CC)c(C)c5C(=S)C4)[C@@H](CCC(=O)OC)[C@@H]3C [Compound 6, Pyropheophorbide a 13^1-Thioketone]
[2]; 4% Kolliphor ELP micellar solution, neutral pH, after 3 h
  decrease of Q2 band: more than 50%
[2]; 4% Kolliphor ELP micellar solution, neutral pH, after 24 h
  conversion of thioketone to pyropheophorbide a (4): completely converted
[1]
  long-wave absorption maximum (Q2 band): 708 nm
  fluorescence maximum: 723 nm

## C=Cc1c(C)c2cc3nc(c4c5[nH]c(cc6nc(cc1[nH]2)C(C)=C6CC)c(C)c5C(=[S+][Pt-2]([NH3+])([NH3+])[Cl])C4)[C@@H](CCC(=O)OC)[C@@H]3C.O=[N+]([O-])[O-] (stereo partly drawn) [Compound 7, Platinum Complex of Pyropheophorbide a 13^1-Thioketone]
[3]; irradiation at 10 J/cm^2, MTT after 24 h, read-out: IC50, Photoinduced cytotoxicity
  IC50: 478 ± 9 nM
[3]; irradiation at 10 J/cm^2, MTT after 48 h, read-out: IC50, Combined cytotoxicity
  IC50: 146 ± 7 nM
[3]; irradiation at 10 J/cm^2, MTT after 72 h, read-out: IC50, Combined cytotoxicity
  IC50: 98 ± 5 nM
[3]; from 24 h to 72 h after irradiation
  increase of photocytotoxicity on increasing incubation time after irradiation: 5 fold
[4]
  IC50: 271 ± 7 nM
[2]; Kolliphor ELP micellar solution, acid, pH = 4
  chemical stability (Qy band): hypsochromic shift in the Qy band to the 666 nm region
[2]; Kolliphor ELP micellar solution, alkaline, pH = 9
  chemical stability (Qy band intensity): a precipitate formed and the intensity of the Qy absorption band decreased
[2]; Kolliphor ELP micellar solution, pH = 7
  chemical stability (Qy band intensity): remained stable for 24 h
[5]; pH 4, 0 min
  Content, %: 100%
  Intensity at 675 nm: 0.913
[5]; pH 4, 4 h
  Content, %: 25%
  Intensity at 675 nm: 0.2282
[5]; pH 4, 24 h
  Content, %: 17%
  Intensity at 675 nm: 0.1552
[5]; pH 4, 72 h
  Content, %: 11%
  Intensity at 675 nm: 0.1004
[5]; pH 7, 0 min
  Content, %: 100%
  Intensity at 675 nm: 0.913
[5]; pH 7, 4 h
  Content, %: 97%
  Intensity at 675 nm: 0.8856
[5]; pH 7, 24 h
  Content, %: 94%
  Intensity at 675 nm: 0.8582
[5]; pH 7, 72 h
  Content, %: 91%
  Intensity at 675 nm: 0.833
[5]; pH 9, 0 min
  Content, %: 100%
  Intensity at 675 nm: 0.913
[5]; pH 9, 4 h
  Content, %: 87%
  Intensity at 675 nm: 0.7943
[5]; pH 9, 24 h
  Content, %: 75%
  Intensity at 675 nm: 0.6847
[5]; pH 9, 72 h
  Content, %: 65%
  Intensity at 675 nm: 0.5277
[6]; 0 min
  Content, %: 100%
  Intensity at 675 nm: 0.913
[6]; 4 h
  Content, %: 89%
  Intensity at 675 nm: 0.8126
[6]; 24 h
  Content, %: 84%
  Intensity at 675 nm: 0.7669
[6]; 72 h
  Content, %: 79%
  Intensity at 675 nm: 0.7213

## Pheophorbide a [Compound 3, reference compound]
[1]
  long-wave absorption maximum (Q2 band): 666 nm
  fluorescence maximum: 680 nm
